Results published in US8492391B2, “Substituted 6-(2-hydroxybenzylamino)purine derivatives, their use as medicaments and compositions containing these derivatives” (Univerzita Palackeho V Olomouci, priority 2009, dated 2013).

System: A549 lung adenocarcinoma
Experiment: Human xenograft model of A549 lung adenocarcinoma
Format: in vivo
Details: 150 mg/kg orally twice daily
Procedure: More detailed analysis of anticancer activity of compound 128 was performed on human xenograft model of A549 lung adenocarcinoma transplanted to CD-1 SCID mice. Animals were transplanted subcutaneously with 2.10^6 A549 cells into lower back. Approximately one month later, majority of animals developed palpable tumors and therapy was initiated. The drug was given orally by gastric gavages in total volume of 200 μl/dose twice daily at dose 150 mg/kg in two chemotherapy cycles (Days 1-3 and 7-9). The compound 128 was solubilized in 5% N-methyl-2-pyrollidine, 30% polyethylene glycol 400, 65% tartar buffer (pH 3.0). Primary endpoint for analysis was reduction of tumor volume (10 mice/group), which was quantified by caliperation. Analysis of treated animals was preformed in comparison with vehicle treated mice. Body weight of experimental animals was also evaluated in parallel in order to reflect toxicity of the therapy. Comparative analysis of tumor volumes and body weights was performed using non-parametric t-test.

With CCC(CO)Nc1nc(NCc2cccc(OC)c2O)c2ncn(C(C)C)c2n1 (racemic) [Compound 128, (RS)-2-({6-[(2-hydroxy-3-methoxybenzyl)amino]-9-isopropyl-9-H-purin-2-yl}amino)butan-1-ol] the mean survival time (Days 1-3 and 7-9) was 39.1 days, the tolerability (Days 1-3 and 7-9) was “good tolerability” and the tumor volume (Days 1-3 and 7-9, vs vehicle, P=0.0506) was “significantly smaller tumors”. For the same molecule, the “body weight of treated animals” value (significant at Day 52 only) was “only slight reduction the body weight”.
